From PMC6268433, “New Sorafenib Derivatives: Synthesis, Antiproliferative Activity Against Tumour Cell Lines and Antimetabolic Evaluation” (Molecules, 2012)
Like-named read-outs stand apart in the source and are kept apart here.

Assays:
[1] = system: RNA synthesis in CEM cells; experiment: Antimetabolic activity: [5-3H]Urd incorporation (RNA synthesis) in CEM cell cultures; assay type: cell-based; settings: Homo sapiens, CCRF-CEM, ~20 h, TCA-insoluble material
Source text: (§1) A variety of compounds (2a, 3a, 4a with a cycloalkyl substituent directly attached to nitrogen atom, 2c, 3c, 4c with a cycloalkyl bound to nitrogen through a short spacer and 2e, 3e, 4e with an aromatic substituent) have been investigated on their inhibitory activity against DNA, RNA and protein synthesis in CEM cell cultures. The compounds were equally inhibitory to dThd (DNA synthesis), Urd (RNA synthesis) and Leu (protein synthesis) incorporation into TCA-insoluble cell material. The 2 series of compounds were least inhibitory whereas the 4 series were most inhibitory (IC50 in the lower micromolar range). Their antimetabolic IC50 values closely corresponded to their antiproliferative IC50 values. They also behaved as sorafenib in terms of antimetabolic potential (Table 3).
(§2) The procedures have been modified from previously described methods. Human CEM cells were seeded in 96-well microtiter plates at 10 × 10^4 cells/200 µL-well in the presence of serial dilutions of the tested compounds. Then, 0.25 µCi of [CH3-^3H]dThd (radiospecificity: 52 Ci/mmol) or 1 µCi of [5-^3H]Urd (radiospecificity: 26 Ci/mmol) or [4,5-^3H]Leu (radiospecificity: 160 Ci/mmol) were added and the drug-exposed tumour cell cultures further incubated at 37 °C for ~20 h. Then the content of each well was transfered to glass fiber discs (Wattman, GE Healthcare, Maidstone, UK), mounted on a manifold (Millipore, Billerica, MA, USA) and subsequently washed with PBS (to remove the radiolabel material that has not been incorporated in the cellular macromolecules), 10% and 5% trichoroacetic acid (TCA) (to precipitate DNA, RNA and proteins) and ethanol. Then, the radioactivity (TCA precipitate) associated with each disc was determined in a liquid scintillation counter (Packard, Palo Alto, CA, USA).

HeLa (cervix carcinoma) = experiment: Cytostatic activity, Coulter counter; assay type: cell-based, human; settings: 72 h, cell number by Coulter counter, read-out: Tumour cell growth/IC50 HeLa
Description: (§3) The experiments were carried out on six human tumour and one murine cell lines, which are derived from five solid tumour types and two (one murine and one human) suspension tumour cell lines. The following cell lines were used: HCT 116 (colon carcinoma), SW 620 (colon carcinoma), MCF-7 (breast carcinoma), H 460 (lung carcinoma), L1210 (murine leukemia), CEM (human lymphoma) and HeLa (cervix carcinoma). […] Compounds 3d and 3e with a benzene ring in the amide moiety, exerted a somewhat stronger (but still rather poor) cytostatic effect (IC50 ≈ 20-90 µM). […] The compounds were also equally cytostatic against primary human embryonic lung (HEL) fibroblast cells (Table 2). The obtained data clearly point to the obligatory presence of the [4-chloro-3-(trifluoromethyl)phenyl]carbamoyl group being crucial for high potency. Also, the 4a–e series of compounds are far more lipophilic than the 2 and 3 series of compounds, which may be related to their increased cytostatic potential.
(§4) The cytostatic activity of the tested compounds against murine leukemia L1210, human cervix carcinoma HeLa, human embrionic lung (HEL) and T-lymphocyte CEM cells was determined with cells grown in suspension (L1210, CEM) or monolayers (HeLa, HEL) in 200 µL-wells of 96-well microtiter plates (initial cell number: 5–7.5 × 10^4 cells/well). After 48 (L1210) or 72 (CEM, HeLa, HEL) h, the tumour cell number was determined by the use of a Coulter counter.

L1210 (murine leukemia) = experiment: Cytostatic activity, Coulter counter; assay type: cell-based; settings: 48 h, cell number by Coulter counter, read-out: Tumour cell growth/IC50 L1210
Description: as §3, §4

[2] = system: primary human embryonic lung (HEL) fibroblast cells; experiment: Cytostatic activity, Coulter counter; assay type: cell-based; settings: 72 h, cell number by Coulter counter, primary fibroblasts
Description: as §3, §4

CEM (human lymphoma) = experiment: Cytostatic activity, Coulter counter; assay type: cell-based; settings: 72 h, cell number by Coulter counter, read-out: Tumour cell growth/IC50 CEM
Description: as §3, §4

[3] = system: protein synthesis in CEM cells; experiment: Antimetabolic activity: [4,5-3H]Leu incorporation (protein synthesis) in CEM cell cultures; assay type: cell-based; settings: Homo sapiens, CCRF-CEM, ~20 h, TCA-insoluble material
Source text: as §1, §2

CaCo-2 cell cultures = experiment: Uptake at apical side and release at basolateral side of CaCo-2 cell cultures; assay type: in vitro ADME, human; settings: 100 µmol·L^–1 at apical side, 0-24 h, HPLC
Source text: Derivatives 2a, 3a and 4a have been examined for their efficiency of uptake at the apical site and subsequent delivery at the basolateral site of colon carcinoma CaCo-2 cell cultures. This model system can be used to predict the potential of a drug to show oral bioavailability. Sorafenib was included as the reference compound. […] The molecular basis of this phenomenon is yet unclear.
Figure 1 Release of the tested compounds at the basolateral side by CaCo-2 cell cultures. Hundred micromolar concentrations of the tested compounds were added at the apical side of confluent CaCo-2 cell cultures, and the appearance of the intact tested compound at the basolateral side was measured by HPLC analysis.
Human colon carcinoma CaCo-2 cells were seeded in the inner wells of a double-chamber-well-tray at 150,000 cells (0.5 mL) per 1 mL-well. The outer wells also contain 0.5 mL medium (without cells). After the cells were grown to confluency (~2 days) at 37 °C in a humidified CO2-controlled atmosphere, 100 µmol·L^–1 tested compound (final concentration) was added to the inner well, and the medium from the outer wells was replaced by 800 µL PBS (containing 10% foetal bovine serum). At different time points (i.e., 0, 2, 4, 6, 8 and 24 h), 50 µL was removed from the outer wells and mixed with 100 µL cold methanol. The mixture was left on ice for 10 min, centrifuged to remove the precipitate, and the supernatant was analysed by HPLC (reversed phase) to determine the drug concentration that appeared in the outer wells (reflecting basolateral drug efflux) in function of time.

MCF-7 (breast carcinoma) = experiment: Cytostatic activity, MTT assay; assay type: cell-based, human; settings: read-out: Tumour cell growth/IC50 MCF-7
Description: as §3
(§5) HCT 116, SW 620, MCF-7, and H 460 cells were cultured as monolayers and maintained in Dulbecco’s modified Eagle medium (DMEM), supplemented with 10% fetal bovine serum (FBS), 2 mmol·L^–1 L-glutamine, 100 U·mL^–1 penicillin and 100 μg·mL^–1 streptomycin in a humidified atmosphere with 5% CO2 at 37 °C. The growth inhibition activity was assessed as described previously, according to the slightly modified procedure of the National Cancer Institute, Developmental Therapeutics Program. Briefly, the cells were seeded onto standard 96-well microtiter plates on day 0. The cell concentrations were adjusted according to the cell population doubling time (PDT): 3000 cells/well for HCT116 and SW 620 cell lines (PDT = 20–24 h) and 4,000 cells/well for MCF-7 cell lines (PDT = 33 h). Tested agents were then added in five consecutive 10-fold dilutions (10^–8 to 10^–4 mol·L^–1) and incubated for further 72 h. Working dilutions were freshly prepared on the day of testing. The solvent (DMSO) was also tested for eventual inhibitory activity by adjusting its concentration to be the same as in working concentrations (maximal concentration of DMSO was 0.25%). After 72 h of incubation, the cell growth rate was evaluated by performing the MTT assay (Promega) which detects dehydrogenase activity in viable cells. The absorbency (OD, optical density) was measured on a microplate reader at 570 nm. Each test point was performed in quadruplicate in at least three individual experiments. The results are expressed as IC50, which is the concentration necessary for 50% of inhibition. […] Each result is a mean value from three separate experiments.

H 460 (lung carcinoma) = experiment: Cytostatic activity, MTT assay; assay type: cell-based, human; settings: read-out: Tumour cell growth/IC50 H 460
Description: as §3, §5

[4] = system: HCT 116 (colon carcinoma); experiment: Cytostatic activity, MTT assay; assay type: cell-based, human; settings: read-out: Tumour cell growth/IC50 HCT 116
Description: as §3, §5

SW 620 (colon carcinoma) = experiment: Cytostatic activity, MTT assay; assay type: cell-based, human; settings: read-out: Tumour cell growth/IC50 SW 620
Description: as §3, §5

[5] = system: DNA synthesis in CEM cells; experiment: Antimetabolic activity: [CH3-3H]dThd incorporation (DNA synthesis) in CEM cell cultures; assay type: cell-based; settings: Homo sapiens, CCRF-CEM, ~20 h, TCA-insoluble material
Source text: as §1, §2

23 cell lines = system: 23 cell lines; design: method as in PMID 20672370; settings: median over 23 cell lines; cited from earlier work
[6] = system: panel of carcinoma, lymphoma and leukemia tumour cell lines; experiment: Cytostatic activity across the panel of tumour cell lines; assay type: cell-based; settings: Table 2; read-out: IC50 (cytostatic effect, range over cell lines)
Description: as §3, with “The obtained data clearly point to the obligatory presence of the [4-chloro-3-(trifluoromethyl)phenyl]carbamoyl group being crucial for high potency. Also, the 4a–e series of compounds are far more lipophilic than the 2 and 3 series of compounds, which may be related to their increased cytostatic potential.” left out
HCT 116, SW 620, MCF-7, and H 460 cells were cultured as monolayers and maintained in Dulbecco’s modified Eagle medium (DMEM), supplemented with 10% fetal bovine serum (FBS), 2 mmol·L^–1 L-glutamine, 100 U·mL^–1 penicillin and 100 μg·mL^–1 streptomycin in a humidified atmosphere with 5% CO2 at 37 °C. The growth inhibition activity was assessed as described previously, according to the slightly modified procedure of the National Cancer Institute, Developmental Therapeutics Program. […] After 72 h of incubation, the cell growth rate was evaluated by performing the MTT assay (Promega) which detects dehydrogenase activity in viable cells. The absorbency (OD, optical density) was measured on a microplate reader at 570 nm. […]

Row | SMILES | IC50 [1] [µM] | IC50 [3] [µM] | IC50 (MCF-7 (breast carcinoma); Homo sapiens, MCF7, 72 h) [µM] | IC50 (H 460 (lung carcinoma); Homo sapiens, NCI-H460, 72 h) [µM] | IC50 ([4]; Homo sapiens, HCT-116, 72 h) [µM] | IC50 (SW 620 (colon carcinoma); Homo sapiens, SW-620, 72 h) [µM] | IC50 [5] [µM] | IC50 (HeLa (cervix carcinoma); Homo sapiens, HeLa) [µM] | IC50 (L1210 (murine leukemia); Mus musculus, L1210) [µM] | IC50 ([2]; Homo sapiens, Fibroblast) [µM] | IC50 (CEM (human lymphoma); Homo sapiens) [µM] | Drug delivery at the basolateral site compared with sorafenib (CaCo-2 cell cultures) | also measured
1 | O=C(NC1CCCC1)c1cc(Cl)ccn1 [Compound 2a, 4-Chloro-N-cyclopentylpyridine-2-carboxamide] | > 100 | > 100 | > 100 | ≥ 100 | > 100 | > 100 | > 100 | > 100 | > 100 | > 100 | > 100 | higher drug delivery at the basolateral site than sorafenib | –
2 | Nc1ccc(Oc2ccnc(C(=O)NC3CCCC3)c2)cc1 [Compound 3a, 4-(4-Aminophenoxy)-N-cyclopentylpyridine-2-carboxamide] | > 100 | > 100 | 53 ± 40 | > 100 | 54 ± 21 | ≥ 100 | > 100 | 77 ± 3.4 | 121 ± 50.5 | > 100 | ≥ 100 | higher drug delivery at the basolateral site than sorafenib | –
3 | Nc1ccc(Oc2ccnc(C(=O)NCc3ccccc3)c2)cc1 [Compound 3d, 4-(4-Aminophenoxy)-N-benzylpyridine-2-carboxamide] | – | – | 29 ± 13 | 42 ± 9 | 29 ± 4 | 37 ± 6 | – | 94 ± 1.9 | 66 ± 3.1 | > 100 | 94 ± 2.2 | – | IC50 [6]: 20 to 90 µM

Continued by falling IC50 [1], values first:

Row | IC50 [1] [µM] | IC50 [3] [µM] | IC50 (MCF-7 (breast carcinoma); Homo sapiens, MCF7, 72 h) [µM] | IC50 (H 460 (lung carcinoma); Homo sapiens, NCI-H460, 72 h) [µM] | IC50 ([4]; Homo sapiens, HCT-116, 72 h) [µM] | IC50 (SW 620 (colon carcinoma); Homo sapiens, SW-620, 72 h) [µM] | IC50 [5] [µM] | SMILES | IC50 (HeLa (cervix carcinoma); Homo sapiens, HeLa) [µM] | IC50 (L1210 (murine leukemia); Mus musculus, L1210) [µM] | IC50 ([2]; Homo sapiens, Fibroblast) [µM] | IC50 (CEM (human lymphoma); Homo sapiens) [µM] | Drug delivery at the basolateral site compared with sorafenib (CaCo-2 cell cultures) | also measured
4 | 49.9 ± 17.9 | > 100 | 34 ± 17 | 20 | 25 ± 2 | 20 ± 7 | > 100 | Nc1ccc(Oc2ccnc(C(=O)NCCc3ccccc3)c2)cc1 [Compound 3e, 4-(4-Aminophenoxy)-N-phenylethylpyridine-2-carboxamide] | 39 ± 3 | 63 ± 8.9 | > 100 | 42 ± 3 | – | IC50 [6]: 20 to 90 µM
5 | 12.2 ± 8.4 | 27.4 ± 12.7 | 2 ± 0.1 | 2 ± 0.2 | 3 ± 1 | 3 ± 0.4 | 20.1 ± 10.9 | O=C(Nc1ccc(Oc2ccnc(C(=O)NCC3CCCCC3)c2)cc1)Nc1ccc(Cl)c(C(F)(F)F)c1 [Compound 4c, 4-[4-[[4-Chloro-3-(trifluoromethyl)phenyl]carbamoylamino]phenoxy]-N-cyclohexylmethyl-pyridine-2-carboxamide] | 2.7 ± 1.8 | 1.8 ± 0.3 | 2.9 | 2 ± 0.5 | – | melting point: 156 to 160 °C
6 | 7.7 ± 2.1 | 6.1 ± 0.7 | 4 ± 1 | 1 | 3 ± 0.5 | 2 ± 0.4 | 12.5 ± 6.7 | O=C(Nc1ccc(Oc2ccnc(C(=O)NC3CCCC3)c2)cc1)Nc1ccc(Cl)c(C(F)(F)F)c1 [Compound 4a, 4-[4-[[4-Chloro-3-(trifluoromethyl)phenyl]carbamoylamino]phenoxy]-N-cyclopentyl-pyridine-2-carboxamide] | 3.1 ± 0.6 | 4.2 ± 0.8 | 2.8 | 4.2 ± 0.6 | less efficient than the reference compound | –
7 | 7.1 ± 0.2 | 12 ± 7 | – | – | – | – | 8.6 ± 1.1 | CNC(=O)c1cc(Oc2ccc(NC(=O)Nc3ccc(Cl)c(C(F)(F)F)c3)cc2)ccn1 [Sorafenib, 4-[4-[[4-chloro-3-(trifluoromethyl)phenyl]carbamoylamino]phenoxy]-N-methylpyridine-2-carboxamide] | – | – | – | – | – | IC50 (HeLa (cervix carcinoma)): 3.7 ± 0.6 µM; IC50 (23 cell lines): 4.3 µM; IC50 (L1210 (murine leukemia)): 4.1 µM; IC50 [2]: 7.5 ± 0.7 µM; IC50 (CEM (human lymphoma)): 3.4 ± 0.5 µM; IC50 (MCF-7 (breast carcinoma); 72 h): 3 ± 0.7 µM; IC50 (H 460 (lung carcinoma); 72 h): 3 ± 0.8 µM; IC50 ([4]; 72 h): 3 ± 0.8 µM; IC50 (SW 620 (colon carcinoma); 72 h): 6 ± 1 µM
